Reference: US7723091B2 (priority 1999, dated 2010)
Read-outs that look alike come from different tables or passages of the source. Marks after values point to notes of the source that are not given here.

What was measured:
[1] = system: Eimeria tenella sporozoites; test: In vitro invasion of BHK cells by Eimeria tenella sporozoites; format: cell-based
Experimental: (§1) Eineria acervulina sporozoites or Eimeria tenella sporozoites and cultured baby hamster kidney (BHK) cells were prepared by published methods. See Augustine, Avian and Poultry Biology Reviews 1:113-122, 2000. For cell pretreatment, cell cultures were overlaid with dilutions of enzymes as described in Table 11, and examined for morphological changes from 5 to 45 min post overlay. After 45 minutes, the monolayer cultures were washed twice, then inoculated with untreated E. acervulina or E. tenella sporozoites. For application during infection, sporozoites were suspended in the appropriate dilution of the enzyme and inoculated immediately into the cell cultures. After 45 minutes incubation, cultures were fixed, stained, and the invasion was quantified.
(§2) Observations were made looking for changes in gross morphology of sporozoites or cells due to enzyme treatment. At the enzyme levels used in these experiments, no morphological change was noted. The sporozoite invasion of the cultured cells was measured after the two methods of enzyme treatment, as well as without enzyme treatment, by histological staining and microscopy procedures. See Augustine, supra.

[2] = system: E. acervulina, E. maxima and Clostridium perfringens; format: in vivo, broiler chickens; conditions: Trial IV; infected; PI-PLC 30 U/lb, Man. 121 MU/ton, BMD 50 g/ton, salinomycin 60 g/ton
[3] = system: E. acervulina and Clostridium perfringens; format: in vivo, broiler chickens
[4] = system: Cryptosporidium; test: SCID mouse model of Cryptosporidium infection; conditions: for Parasite load (SD) Day 21 / Parasite load (SD) Day 28 / Parasite load (SD) Day 31 / Percent Inhibition Day 21 / Percent Inhibition Day 28 / Percent Inhibition Day 31: feces
[5] = system: Eimeria acervulina sporozoites; test: In vitro invasion of BHK cells by Eimeria acervulina sporozoites; format: cell-based
Experimental: as §1, §2

[6] = Application of Enzyme During Infection, Test 1, recombinant PI-PLC 0.0261 U/mL
[7] = Application of Enzyme During Infection, Test 2, B. cereus PI-PLC 0.0403 U/mL, recombinant 0.261 U/mL, listed as PI-PLC from Recombinant B. megateriaum
[8] = Application of Enzyme During Infection, Test 2, recombinant PI-PLC 0.0261 U/mL
[9] = Cell Pretreatment with Enzyme Followed by Wash, Test 1, B. cereus PI-PLC 0.0403 U/mL, recombinant 0.261 U/mL, mannanase 5100 U/mL, listed as PI-PLC from Recombinant B. megateriaum
[10] = Cell Pretreatment with Enzyme Followed by Wash, Test 2, B. cereus PI-PLC 0.0403 U/mL, recombinant 0.261 U/mL, mannanase 5100 U/mL, listed as PI-PLC from Recombinant B. megateriaum
[11] = Cell Pretreatment with Enzyme Followed by Wash, Test 2, recombinant PI-PLC 0.0261 U/mL
[12] = Trial II T4 (Rec), T7 (Wt), infected, 10 U/lb
[13] = Trial II T9, no infection challenge, 90 U/lb
[14] = Group A, 90 U/lb in feed, Day 3
[15] = Group A, 90 U/lb in feed, Day 7
[16] = Group A, 90 U/lb in feed, Day 10
[17] = Group A, 90 U/lb in feed, Day 14
[18] = Group A, 90 U/lb in feed, Day 17
[19] = Group A, 90 U/lb in feed, Day 21
[20] = Group A, 90 U/lb in feed, Day 24
[21] = Group B, 30 U/lb in feed, Day 3
[22] = Group B, 30 U/lb in feed, Day 7
[23] = Group B, 30 U/lb in feed, Day 10
[24] = Group B, 30 U/lb in feed, Day 14
[25] = Group B, 30 U/lb in feed, Day 17
[26] = Group B, 30 U/lb in feed, Day 21
[27] = Group B, 30 U/lb in feed, Day 24

## phosphatidylinositol specific phospholipase C [Recombinant PI-PLC]
[1]; Application of Enzyme During Infection, Test 1, B. cereus PI-PLC 0.0403 U/mL, recombinant 0.261 U/mL, mannanase 5100 U/mL, listed as PI-PLC from Recombinant B. megateriaum
  Invasion counts (mean ± standard error of the mean): 28 ± 2^b
[1]; [6]
  Invasion counts (mean ± standard error of the mean): 18 ± 1^c
[1]; [7]
  Invasion counts (mean ± standard error of the mean): 39 ± 4^ab
[1]; [8]
  Invasion counts (mean ± standard error of the mean): 29 ± 1^b
[1]; [9]
  Invasion counts (mean ± standard error of the mean): 30 ± 1^c
[1]; [10]
  Invasion counts (mean ± standard error of the mean): 15 ± 0^a
[1]; [11]
  Invasion counts (mean ± standard error of the mean): 17 ± 1^a
[2]
  Feed Conversion Day 0-21: 1.701
  Feed Conversion Day 8-21: 1.778
  Lesion Score E. acer. Upper: 2.25
  Lesion Score E. max. Middle: 1.50
  Live Weight Day 21: 0.486
  Weight Gain Day 0-21: 0.451
  Weight Gain Day 8-21: 0.347
[3]; Trial II T3, infected, 3 U/lb
  8-21 Day Feed Conversion (Corrected): 1.702
  8-21 Day Weight Gain: 323.24
  Average Intestinal Lesion Score: 1.120
[3]; [12]
  8-21 Day Feed Conversion (Corrected): 1.732
  8-21 Day Weight Gain: 324.78
  Average Intestinal Lesion Score: 1.133
[3]; Trial II T5, infected, 30 U/lb
  8-21 Day Feed Conversion (Corrected): 1.699
  8-21 Day Weight Gain: 320.64
  Average Intestinal Lesion Score: 0.842
[3]; Trial II T6, infected, 90 U/lb
  8-21 Day Feed Conversion (Corrected): 1.739
  8-21 Day Weight Gain: 328.29
  Average Intestinal Lesion Score: 0.808
[3]; [13]
  8-21 Day Feed Conversion (Corrected): 1.650
  8-21 Day Weight Gain: 338.8
  Average Intestinal Lesion Score: 0.847
[3]; Trial II, T3-T6 (3-90 U/lb)
  effect of varying concentrations on intestinal lesion score, feed conversion and weight gain: dose-dependent effect on lowering the intestinal lesion score and feed conversion (T3-T6) and increasing weight gain
[4]; [14]
  Feed (g) consumed/mouse/day AVG: 7.56 g
  Weight (g) AVG: 16.67 g
[4]; [15]
  Feed (g) consumed/mouse/day AVG: 8.31 g
  Weight (g) AVG: 16.95 g
[4]; [16]
  Feed (g) consumed/mouse/day AVG: 8.55 g
  Weight (g) AVG: 17.29 g
[4]; [17]
  Feed (g) consumed/mouse/day AVG: 7.78 g
  Weight (g) AVG: 17.43 g
[4]; [18]
  Feed (g) consumed/mouse/day AVG: 8.52 g
  Weight (g) AVG: 17.64 g
[4]; [19]
  Feed (g) consumed/mouse/day AVG: 7.89 g
  Weight (g) AVG: 18.25 g
[4]; [20]
  Feed (g) consumed/mouse/day AVG: 9.79 g
  Weight (g) AVG: 18.2 g
[4]; [21]
  Feed (g) consumed/mouse/day AVG: 6.13 g
  Weight (g) AVG: 17.055 g
[4]; [22]
  Feed (g) consumed/mouse/day AVG: 8.51 g
  Weight (g) AVG: 16.91 g
[4]; [23]
  Feed (g) consumed/mouse/day AVG: 7.93 g
  Weight (g) AVG: 17.08 g
[4]; [24]
  Feed (g) consumed/mouse/day AVG: 8.06 g
  Weight (g) AVG: 17.62 g
[4]; [25]
  Feed (g) consumed/mouse/day AVG: 8.53 g
  Weight (g) AVG: 17.84 g
[4]; [26]
  Feed (g) consumed/mouse/day AVG: 8.22 g
  Weight (g) AVG: 18.62 g
[4]; [27]
  Feed (g) consumed/mouse/day AVG: 8.3 g
  Weight (g) AVG: 18.63 g
[4]; feces at 3, 4 and 4.5 weeks post-infection, 30 or 90 U/lb
  reduction in parasite load in the treated groups: 34-54%
[4]; 30 U/lb in feed
  Parasite load (SD) Day 21: 16.2 (4.7) oocysts/100 μl
  Parasite load (SD) Day 28: 23.4 (11)* oocysts/100 μl
  Parasite load (SD) Day 31: 74.3 (89.7)^+ oocysts/100 μl
  Percent Inhibition Day 21: 52.0%
  Percent Inhibition Day 28: 54.6%
  Percent Inhibition Day 31: 40.0%
[4]; 90 U/lb in feed
  Parasite load (SD) Day 21: 22.7 (11.4) oocysts/100 μl
  Parasite load (SD) Day 28: 26.3 (14)* oocysts/100 μl
  Parasite load (SD) Day 31: 87.5 (52.9) oocysts/100 μl
  Percent Inhibition Day 21: 44.0%
  Percent Inhibition Day 28: 48.9%
  Percent Inhibition Day 31: 34.0%
[5]; Application of Enzyme During Infection, Test 1, B. cereus PI-PLC 0.0403 U/mL, recombinant 0.261 U/mL, listed as PI-PLC from Recombinant B. megateriaum
  Invasion counts (mean ± standard error of the mean): 16 ± 2^c
[5]; [6]
  Invasion counts (mean ± standard error of the mean): 36 ± 3^b
[5]; [7]
  Invasion counts (mean ± standard error of the mean): 18 ± 1^bc
[5]; [8]
  Invasion counts (mean ± standard error of the mean): 9 ± 2^c
[5]; [9]
  Invasion counts (mean ± standard error of the mean): 14 ± 1^b
[5]; Cell Pretreatment with Enzyme Followed by Wash, Test 1, recombinant PI-PLC 0.0261 U/mL
  Invasion counts (mean ± standard error of the mean): 18 ± 1^ab
[5]; [10]
  Invasion counts (mean ± standard error of the mean): 22 ± 1^b
[5]; [11]
  Invasion counts (mean ± standard error of the mean): 26 ± 1^ab
